Assay results published in patent US20260285850A1, “SUBSTITUTED OXAZOLIDINONES AND IMIDAZOLINONES AS HERBICIDES” (FMC CORPORATION, priority 2023, published 2026).

Assays:
Type in all cases: in vivo
[1] = tested on: galium (catchweed bedstraw, Galium aparine); assay: Test A postemergence application, visual injury rating 0-100; conditions: 10 days
Outline: (§1)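 Plants in a loam and sand soil blend were treated with each test chemical, in a non-phytotoxic solvent system including surfactant, either sprayed on seeded soil before emergence or applied after emergence at the one- to two-leaf stage. Ten days later in the greenhouse, plants were compared with untreated controls and visually rated from 0 (no effect) to 100 (complete control).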

[2] = tested on: ragweed (common ragweed, Ambrosia artemisiifolia); assay: as above; conditions: 10 days
Outline: as §1

[3] = tested on: oat, wild (wild oat, Avena fatua); assay: as above; conditions: 10 days
Outline: as §1

[4] = tested on: green foxtail (Setaria viridis); assay: as above; conditions: 10 days
Outline: as §1

soybean (Glycine max) [5] = assay: as above; conditions: 10 days
Outline: as §1

corn (Zea mays) [6] = assay: as above; conditions: 10 days
Outline: as §1

[7] = tested on: ryegrass, Italian (italian ryegrass, Lolium multiflorum); assay: as above; conditions: 10 days
Outline: as §1

[8] = tested on: blackgrass (Alopecurus myosuroides); assay: as above; conditions: 10 days
Outline: as §1

[9] = tested on: palmer (palmer amaranth, palmer pigweed, Amaranthus palmeri); assay: as above; conditions: 10 days
Outline: as §1

[10] = tested on: wheat (Triticum aestivum); assay: as above; conditions: 10 days
Outline: as §1

kochia (Bassia scoparia) [11] = assay: as above; conditions: 10 days
Outline: as §1

[12] = tested on: barnyardgrass (Echinochloa crus-galli); assay: as above; conditions: 10 days
Outline: as §1

[13] = tested on: horseweed (Erigeron canadensis); assay: as above; conditions: 10 days
Outline: as §1

[14] = tested on: sedge, umbrella (small-flower umbrella sedge, Cyperus difformis); assay: Test B flooded paddy test, visual plant response rating 0-100; conditions: 250 g ai/ha, Flood, applied to paddy water, evaluated after 13 days
Outline: (§2)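 Visual evaluation after 13 days. Water-applied treatment, 3 cm flood depth held constant, plants at 2-leaf stage at treatment.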

[15] = tested on: barnyardgrass (Echinochloa crusgalli); assay: as above; conditions: 250 g ai/ha, Flood, applied to paddy water, evaluated after 13 days
Outline: as §2

rice (Oryza sativa) = assay: as above; conditions: 250 g ai/ha, Flood, applied to paddy water, evaluated after 13 days
Outline: as §2

[16] = tested on: ducksalad (Heteranthera limosa); assay: as above; conditions: 250 g ai/ha, Flood, applied to paddy water, evaluated after 13 days
Outline: as §2

[17] = tested on: ragweed (common ragweed, Ambrosia artemisiifolia); assay: Test A preemergence soil spray, visual injury rating 0-100; conditions: 10 days, 0 = no effect, 100 = complete control
Outline: as §1

[18] = tested on: oat, wild (wild oat, Avena fatua); assay: as above; conditions: 10 days, 0 = no effect, 100 = complete control
Outline: as §1

[19] = tested on: green foxtail (Setaria viridis); assay: as above; conditions: 10 days, 0 = no effect, 100 = complete control
Outline: as §1

soybean (Glycine max) [20] = assay: as above; conditions: 10 days, 0 = no effect, 100 = complete control
Outline: as §1

corn (Zea mays) [21] = assay: as above; conditions: 10 days, 0 = no effect, 100 = complete control
Outline: as §1

[22] = tested on: ryegrass, Italian (italian ryegrass, Lolium multiflorum); assay: as above; conditions: 10 days, 0 = no effect, 100 = complete control
Outline: as §1

[23] = tested on: blackgrass (Alopecurus myosuroides); assay: as above; conditions: 10 days, 0 = no effect, 100 = complete control
Outline: as §1

[24] = tested on: palmer (palmer amaranth, palmer pigweed, Amaranthus palmeri); assay: as above; conditions: 10 days, 0 = no effect, 100 = complete control
Outline: as §1

[25] = tested on: wheat (Triticum aestivum); assay: as above; conditions: 10 days, 0 = no effect, 100 = complete control
Outline: as §1

kochia (Bassia scoparia) [26] = assay: as above; conditions: 10 days, 0 = no effect, 100 = complete control
Outline: as §1

[27] = tested on: barnyardgrass (Echinochloa crus-galli); assay: as above; conditions: 10 days, 0 = no effect, 100 = complete control
Outline: as §1

[28] = 31 g ai/ha, postemergence, 0 = no effect, 100 = complete control
[29] = Postemergence, 125 g ai/ha, 0 is no effect, 100 is complete control

Which “Galium plant response rating (0-100)” value [1, 28] does the source give for `CC1(C(=O)NC2CC=C(C(=O)OCC(F)(F)F)C2)CN(c2cc(F)cc(F)c2)C(=O)O1` (stereo not shown) [Compound 1] here?
Its value is 90.

And the “Galium plant response rating (0 to 100 scale)” value [1, 29]?
The value was 90.

And the “Ragweed plant response rating (0-100)” value [2, 28]?
The value was 60.

What about the “Ragweed plant response rating (0 to 100 scale)” value [2, 29] of the same compound?
Its value is 70.

And the “Oat, Wild plant response rating (0-100)” value [3, 28]?
The value was 90.

And the “Oat, Wild plant response rating (0 to 100 scale)” value [3, 29]?
The value was 100.

What about the “Foxtail, Green plant response rating (0-100)” value [4, 28] of the same compound?
The value was 90.

What about the “Foxtail, Green plant response rating (0 to 100 scale)” value [4, 29] of the same compound?
The value was 90.

And the “Soybean plant response rating (0-100)” value (soybean (Glycine max) [5]; [28])?
Its value is 80.

What about the “Soybean plant response rating (0 to 100 scale)” value (soybean (Glycine max) [5]; [29]) of the same compound?
The value was 90.

What about the “Corn plant response rating (0-100)” value (corn (Zea mays) [6]; [28]) of the same compound?
The value was 100.

What about the “Corn plant response rating (0 to 100 scale)” value (corn (Zea mays) [6]; [29]) of the same compound?
The value was 100.

And the “Ryegrass, Italian plant response rating (0-100)” value [7, 28]?
Its value is 80.

And the “Ryegrass, Italian plant response rating (0 to 100 scale)” value [7, 29]?
Its value is 80.

What about the “Blackgrass plant response rating (0-100)” value [8, 28] of the same compound?
Its value is 90.

And the “Blackgrass plant response rating (0 to 100 scale)” value [8, 29]?
Its value is 100.

And the “Amaranth, Palmer plant response rating (0-100)” value [9, 28]?
Its value is 90.

What about the “Amaranth, Palmer / Pigweed, Palmer plant response rating (0 to 100 scale)” value [9, 29] of the same compound?
The value was 90.

And the “Wheat plant response rating (0-100)” value [10, 28]?
Its value is 90.

And the “Wheat plant response rating (0 to 100 scale)” value [10, 29]?
The value was 90.

And the “Kochia plant response rating (0-100)” value (kochia (Bassia scoparia) [11]; [28])?
The value was 70.

And the “Kochia plant response rating (0 to 100 scale)” value (kochia (Bassia scoparia) [11]; [29])?
Its value is 90.

And the “Barnyardgrass plant response rating (0-100)” value [12, 28]?
Its value is 100.

What about the “Barnyardgrass plant response rating (0 to 100 scale)” value [12, 29] of the same compound?
Its value is 100.

What about the “Horseweed plant response rating (0-100)” value [13, 28] of the same compound?
The value was 70.

And the “Horseweed plant response rating (0 to 100 scale)” value [13, 29]?
Its value is 80.

And the “Plant response rating, Sedge, Umbrella (0 to 100 scale, 0 is no effect and 100 is complete control)” value [14]?
Its value is 95.

What about the “Plant response rating, Barnyardgrass (0 to 100 scale, 0 is no effect and 100 is complete control)” value [15] of the same compound?
Its value is 95.

What about the “Plant response rating, Rice (0 to 100 scale, 0 is no effect and 100 is complete control)” value (rice (Oryza sativa)) of the same compound?
The value was 80.

What about the “Plant response rating, Ducksalad (0 to 100 scale, 0 is no effect and 100 is complete control)” value [16] of the same compound?
The value was 60.

And the “Ragweed plant response rating (0-100)” value ([17]; 31 g ai/ha)?
Its value is 20.

What about the “Ragweed plant response rating (0 to 100 scale)” value ([17]; 125 g ai/ha) of the same compound?
The value was 90.

And the “Oat, Wild plant response rating (0-100)” value ([18]; 31 g ai/ha)?
The value was 60.

And the “Oat, Wild plant response rating (0 to 100 scale)” value ([18]; 125 g ai/ha)?
Its value is 80.

What about the “Foxtail, Green plant response rating (0-100)” value ([19]; 31 g ai/ha) of the same compound?
Its value is 100.

What about the “Foxtail, Green plant response rating (0 to 100 scale)” value ([19]; 125 g ai/ha) of the same compound?
The value was 100.

And the “Soybean plant response rating (0-100)” value (soybean (Glycine max) [20]; 31 g ai/ha)?
The value was 70.

What about the “Soybean plant response rating (0 to 100 scale)” value (soybean (Glycine max) [20]; 125 g ai/ha) of the same compound?
The value was 90.

What about the “Corn plant response rating (0-100)” value (corn (Zea mays) [21]; 31 g ai/ha) of the same compound?
Its value is 60.

What about the “Corn plant response rating (0 to 100 scale)” value (corn (Zea mays) [21]; 125 g ai/ha) of the same compound?
Its value is 90.

And the “Ryegrass, Italian plant response rating (0-100)” value ([22]; 31 g ai/ha)?
The value was 80.

What about the “Ryegrass, Italian plant response rating (0 to 100 scale)” value ([22]; 125 g ai/ha) of the same compound?
Its value is 90.

And the “Blackgrass plant response rating (0-100)” value ([23]; 31 g ai/ha)?
The value was 60.

And the “Blackgrass plant response rating (0 to 100 scale)” value ([23]; 125 g ai/ha)?
Its value is 70.

What about the “Amaranth, Palmer plant response rating (0-100)” value ([24]; 31 g ai/ha) of the same compound?
The value was 90.

What about the “Amaranth, Palmer plant response rating (0 to 100 scale)” value ([24]; 125 g ai/ha) of the same compound?
Its value is 100.

What about the “Wheat plant response rating (0-100)” value ([25]; 31 g ai/ha) of the same compound?
The value was 90.

And the “Wheat plant response rating (0 to 100 scale)” value ([25]; 125 g ai/ha)?
The value was 100.

What about the “Kochia plant response rating (0-100)” value (kochia (Bassia scoparia) [26]; 31 g ai/ha) of the same compound?
The value was 50.

And the “Kochia plant response rating (0 to 100 scale)” value (kochia (Bassia scoparia) [26]; 125 g ai/ha)?
Its value is 100.

What about the “Barnyardgrass plant response rating (0-100)” value ([27]; 31 g ai/ha) of the same compound?
The value was 90.

And the “Barnyardgrass plant response rating (0 to 100 scale)” value ([27]; 125 g ai/ha)?
Its value is 100.
